Here are results for 37 compounds from patent US12428413B2 (CHDI Foundation, Inc., priority 2019, dated 2025).

Like-named read-outs stand apart in the source and are kept apart here.

Experiment [1] relates to cellular ROCK activity (cofilin phosphorylation at Ser3) in A7r5 rat smooth muscle cells. Briefly: Cellular ROCK activity: cofilin (Ser3) phosphorylation, In-Cell Western assay. The format is cell-based. To be noted: Rattus norvegicus, A7R5, 1 h, 1 hour compound incubation, phospho-cofilin (Ser3), read-out: CELL_IC50. The method, boiled down:
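A7r5 rat smooth muscle cells (3000/well, overnight) exposed to compound for 1 h at 37° C., then formaldehyde-fixed. Phospho-cofilin Ser3 detected by In-Cell Western with 800CW secondary antibody, read at 700 and 800 nm on an Odyssey imager.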

For experiment [2], the target named is T1, human catalytic domain ROCK II protein (amino acids 5-554) with a N-terminal GST tag (Homo sapiens, UniProt O75116).
T1 sequence (O75116 5-554): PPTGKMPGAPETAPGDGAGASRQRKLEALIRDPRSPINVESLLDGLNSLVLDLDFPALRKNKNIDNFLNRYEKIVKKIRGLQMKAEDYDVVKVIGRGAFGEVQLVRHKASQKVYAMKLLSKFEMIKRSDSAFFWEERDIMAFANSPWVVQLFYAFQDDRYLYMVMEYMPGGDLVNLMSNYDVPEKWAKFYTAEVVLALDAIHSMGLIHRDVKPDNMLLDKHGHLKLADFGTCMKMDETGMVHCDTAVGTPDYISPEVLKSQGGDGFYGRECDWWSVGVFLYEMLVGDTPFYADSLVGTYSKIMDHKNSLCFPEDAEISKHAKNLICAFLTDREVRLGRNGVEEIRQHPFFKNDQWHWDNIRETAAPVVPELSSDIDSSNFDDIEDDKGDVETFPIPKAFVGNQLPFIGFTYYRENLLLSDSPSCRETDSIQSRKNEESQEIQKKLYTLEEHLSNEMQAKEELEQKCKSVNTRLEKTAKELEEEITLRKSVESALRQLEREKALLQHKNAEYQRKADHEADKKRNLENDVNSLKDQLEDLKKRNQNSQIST
The target in experiment [3] is T1, human catalytic domain ROCK II protein (amino acids 5-554) with a N-terminal GST tag. Briefly: biochemical.
Experiment [4] deals with hepatic ischemia/reperfusion in rats. Particulars: oral pretreatment, 25% in vehicle-treated animals; cited from earlier work.
For experiment [5] the following is noted: from 1 through 7 hours after instillation; cited from earlier work.

Turning to `COc1cccc([C@@H](C)NC(=O)N2CCN(c3ccncc3F)C[C@H]2C)c1F` [Example 44, (R)—N—((R)-1-(2-Fluoro-3-methoxyphenyl)ethyl)-4-(3-fluoropyridin-4-yl)-2-methylpiperazine-1-carboxamide], the values for the IC50 in experiment [1] and in experiment [2] were 323 nM and 26.3 nM, respectively.
As for `COc1ccc(F)c([C@@H](C)NC(=O)N2CCN(c3ccnc(F)c3)C[C@H]2C)c1` [Example 112], the IC50 in experiment [1] was determined as 1320 nM; in experiment [3], 38.3 nM.
For `C[C@@H]1CN(c2ccnc(F)c2)CCN1C(=O)N[C@H](C)c1cccc2occc12` [Example 113] the same measures were 122 nM and 3.9 nM.
For `C[C@@H]1CN(c2ccnc(F)c2)CCN1C(=O)N[C@H](C)c1cccc2c1CCO2` [Example 114] the same measures were 30.3 nM and 3.5 nM.
For `[2H]C([2H])([2H])Oc1cccc([C@@H](C)NC(=O)N2CCN(c3ccnc(F)c3)C[C@H]2C)c1` [Example 115] the same measures were 138 nM and 8.1 nM.
Take `[2H]C([2H])([2H])Oc1cccc([C@H](NC(=O)N2CCN(c3ccnc(F)c3)C[C@H]2C)C([2H])([2H])[2H])c1` [Example 116]: the IC50 in experiment [1] came out at 127 nM; in experiment [3] it was 6.9 nM.
For `C[C@@H](NC(=O)N1CCN(c2ccnc(F)c2)[C@@H](C)C1)c1cccc2c1CCO2` [Example 118] the same measures were 711 nM and 16.2 nM.
For `C[C@@H](NC(=O)N1CCN(c2ccnc(F)c2)[C@@H](C)C1)c1cccc2occc12` [Example 119] the same measures were 411 nM and 10 nM.
For `C[C@@H](NC(=O)N1CCN(c2ccnc(F)c2)[C@@H](C)C1)c1cccc(OC(F)F)c1` [Example 120] the same measures were 3970 nM and 59.5 nM.
`C[C@@H](NC(=O)N1CCN(c2ccncc2F)CC1)c1ccccc1Cl` [Example 124]: the IC50 in experiment [1] turned out to be 1160 nM; in experiment [3] it was 61.1 nM.
For `COc1cccc([C@H](C)NC(=O)N2CCN(c3ccncc3F)CC2)c1Cl` [Example 125] the same measures were 4310 nM and 1160 nM.
For `COc1ccc(F)c([C@@H](C)NC(=O)N2CCN(c3ccncc3F)CC2)c1` [Example 126] the same measures were 924 nM and 60.9 nM.
For `C[C@@H](NC(=O)N1CCN(c2ccncc2F)CC1)c1cccc(OC(F)F)c1` [Example 127] the same measures were 428 nM and 24.2 nM.
As for `O=C(NCc1cccc(OC(F)F)c1)N1CCN(c2ccncc2F)CC1` [Example 129], the IC50 came out at 3540 nM in experiment [1] and 84.5 nM in experiment [3].
For `O=C(NCc1ccccc1Cl)N1CCN(c2ccncc2F)CC1` [Example 130], the IC50 is 1660 nM in experiment [1] and 122 nM in experiment [3].
For `[2H]C([2H])([2H])Oc1cccc([C@H](NC(=O)N2CCN(c3ccncc3F)CC2)C([2H])([2H])[2H])c1` [Example 131] the same measures were 152 nM and 8 nM.
For `[2H]C([2H])([2H])Oc1cccc([C@@H](C)NC(=O)N2CCN(c3ccncc3F)CC2)c1` [Example 132] the same measures were 185 nM and 6.7 nM.
For `COc1cccc([C@@H](C)NC(=O)N2CCN(c3ccncc3F)C[C@@H]2C)c1` [Example 133], the values for the IC50 in experiment [1] and in experiment [3] were 2440 nM and 167 nM, respectively.
Regarding `COc1ccc(F)c([C@@H](C)NC(=O)N2CCN(c3ccncc3F)C[C@H]2C)c1` [Example 134], the IC50 in experiment [1] was 108 nM; in experiment [3] it was 6.6 nM.
For `C[C@@H]1CN(c2ccncc2F)CCN1C(=O)N[C@H](C)c1cccc(OC(F)F)c1` [Example 136] the same measures were 53.1 nM and 3.8 nM.
For `COc1cccc([C@@H](C)NC(=O)N2CCN(c3ccncc3F)CC2CO)c1` (stereo partly drawn) [Example 137] the same measures were 79.8 nM and 4.8 nM.
For `COc1cccc(CNC(=O)N2CCN(c3ccncc3F)C[C@H]2C)c1` [Example 138] the same measures were 97.5 nM and 4.2 nM.
Regarding `C[C@@H]1CN(c2ccncc2F)CCN1C(=O)NCc1cccc(OC(F)F)c1` [Example 139], the IC50 in experiment [1] was 486 nM; in experiment [3] it was 10 nM.
In the case of `C[C@@H]1CN(c2ccncc2F)CCN1C(=O)N[C@H](C)c1cccc2c1CCO2` [Example 141], the IC50 in experiment [1] was found to be 1.7 nM; in experiment [3] it was 1.8 nM.
For `C[C@@H]1CN(c2ccncc2F)CCN1C(=O)N[C@H](C)c1cccc2occc12` [Example 142] the same measures were 9.1 nM and 2.6 nM.
For `C[C@H](NC(=O)N1CCN(c2ccncc2F)C[C@H]1C)c1cccc2c1N(C)CCO2` [Example 144] the same measures were 674 nM and 12.8 nM.
For `C[C@@H](NC(=O)N1CCN(c2ccncc2F)[C@@H](C)C1)c1cccc(OC(F)F)c1` [Example 145] the same measures were 413 nM and 12.4 nM.
Consider `C[C@@H](NC(=O)N1CCN(c2ccncc2F)[C@@H](C)C1)c1ccccc1Cl` [Example 146], for which the figures for the IC50 in experiment [1] and in experiment [3] were 2090 nM and 110 nM, respectively.
`C[C@@H](NC(=O)N1CCN(c2ccncc2F)[C@@H](C)C1)c1cccc2c1CCO2` [Example 147]: the IC50 in experiment [1] turned out to be 23 nM; in experiment [3] it was 3.2 nM.
As for `COc1cccc(CNC(=O)N2CCN(c3ccncc3F)[C@@H](C)C2)c1` [Example 150], the IC50 in experiment [1] came out at 707 nM; in experiment [3] it was 20.1 nM.
As to `COc1cccc([C@@H](C)NC(=O)N2CCN(c3ccncc3F)[C@@H]3C[C@@H]32)c1` [Example 151], the IC50 in experiment [1] amounted to 703 nM; in experiment [3], 51.9 nM.
For `COc1cccc([C@@H](C)NC(=O)N2CCN(c3ccncc3F)[C@H]3C[C@H]32)c1` [Example 152] the same measures were 248 nM and 16.3 nM.
For the compound `COc1cccc([C@@H](C)NC(=O)N2C[C@H]3C[C@@H]2CN3c2ccncc2F)c1` [Example 153], the figures for the IC50 in experiment [1] and in experiment [3] were 2430 nM and 238 nM, respectively.
For `COc1cccc([C@@H](C)NC(=O)N2CCN(c3ccncc3F)CC2C)c1` (stereo partly drawn) [Example 154] the same measures were 60.2 nM and 19.6 nM.
For `COc1cccc([C@@H](C)NC(=O)N2CCN(c3ccncc3Cl)C[C@H]2C)c1` [Example 155] the same measures were 42.2 nM and 2.7 nM.
Consider `C[C@@H](N)[C@H]1CC[C@H](C(=O)Nc2ccncc2)CC1` [Example Y27632], for which the “survival at one week after ischemia” value in experiment [4] is reported as 75%.
As for `C[C@H]1CNCCCN1S(=O)(=O)c1cccc2cncc(F)c12` [Ripasudil], the intraocular pressure reduction result in experiment [5] is “Significant intraocular pressure reduction”.
